Measured values: paper PMC12525728, “Safety, Pharmacokinetics, Translational and Molecular Mechanistic Insights on the Prostate Cancer Recurrence Suppressor Pseurotin A” (Molecules, 2025)
Where “and” joins values, the source holds several entries; their conditions need not be identical. Equal values may be shown once. Read-outs that look alike come from different tables or passages of the source.

Assays:
Swiss albino mice = system: Swiss albino mice; set-up: method as in PMID 36771126; settings: cited from earlier work
mCRPC CWR-R1ca-Luc cells = test: mCRPC recurrence prevention study after neoadjuvant DTX and ENZ and primary tumor excision; format: in vivo, athymic male nude mice; settings: 60 days
Procedure: For the recurrence prevention study, nineteen 7–8-week-old athymic male nude mice (Strain Foxn^nu-Foxn^1+) were xenografted with 2 × 10^6 the mCRPC CWR-R1ca-Luc cells at the suprascapular region in 100 µL 1:1 serum-free Dulbecco’s Modified Eagle Medium (DMEM) medium-Matrigel. Mice were fed on an HFD (11.4% total fat, Cat# 7004, Envigo/Teklad, Madison, WI, USA) for 7 days before the tumor cells xenografting. When the tumors reached 100 mm^3, mice were subjected to weekly IV injections of 10 mg/kg docetaxel (DTX) (Combi-Blocks, San Diego, CA, USA) dissolved in Tween 80 (20 mg/mL) for four consecutive weeks, followed by daily IP injections of 5 mg/kg ENZ (Combi-Blocks, San Diego, CA, USA) in sterile PBS for three weeks. Following these neoadjuvant regimens, mice were randomly selected and placed into three groups. Groups 1 (n = 7) received daily oral doses of 20 mg/kg PsA (prepared in sterile PBS-DMSO 925:75). Group 2 (n = 5) received daily oral PsA 10 mg/kg. Group 3 (n = 7) received daily oral doses of PsA-free vehicle control. Treatments continued for 60 days. Isoflurane-anesthetized mice were subjected to weekly tumor monitoring using PerkinElmer IVIS Lumina Series III (Waltham, MA, USA) 30 min after an IP injection of (+)-luciferin (75 mg/kg, IP, PerkinElmer, Waltham, MA, USA) for efficiency assessment of excision surgery, tumor progression, and tumor metastasis. Following treatment regimen completion, mice were anesthetized using isoflurane (USP-vaporizer method, Matrix VIP-3000), exposure of animals in an anesthesia chamber at 3% isoflurane vaporization rate. Exposure time 2 min. Mice were then euthanized by cervical dislocation according to the American Veterinary Medical Association (AVMA) Guidelines for the Euthanasia of Animals: 2020 Edition, and tumors were collected. Tumors were snap frozen using Isopentane (J.T. Baker, Radnor, PA, USA) in liquid nitrogen before storage at −80 °C.

[1] = Pharmacokinetics study in Swiss albino mice; format: in vivo; settings: for C0 / AUC(0-t): iv, 50 mg/kg
Procedure: Five µL of the IS ([…]) and 20 µL of 50, 40, 30, 20, 10, 8, and 4 µg/mL PsA standard solutions were combined with 15 µL freshly extracted blank mouse plasma. 300 µL of a 70% EtOAc/30% isopropanol mixture was added and vortexed for 30 s. Following centrifugation at 15,000× g for 10 min, the supernatant was transferred to a 2 mL Eppendorf tube for nitrogen evaporation. The residues were reconstituted in 25 µL HPLC-grade MeOH before being subjected to 30 s sonication followed by centrifugation at 15,000× g for 10 min. Afterwards, the entire sample was immediately injected for RP-HPLC analysis. The mouse plasma samples used in the PK study were subjected to the same extraction method, minus the addition of the PsA standard solutions. After weighing, each mouse organ was reconstituted in 500 µL PBS, then homogenized using the MISONIX Sonicator (Division of QSonica LLC, Newtown, CT, USA). Samples were centrifuged at 15,000× g for 10 min, and the supernatant was collected and transferred to a 2 mL Eppendorf. About 5 µL of IS (25 µL/mL) and 300 µL of a 70% EtOAc/30% isopropanol mixture were added to 100 µL of supernatant and vortexed for 30 s. Following centrifugation at 15,000× g for 10 min, the supernatant was transferred to a 2 mL Eppendorf tube and evaporated under N2. The remains were reconstituted in 40 µL HPLC-grade methanol before being subjected to 30 s sonication followed by centrifugation at 15,000× g for 10 min.
The mean plasma concentration-time curve was plotted using GraphPad Prism software version 8.0.2 (La Jolla, CA, USA). PK parameters were obtained through non-compartmental analysis following intravenous bolus input using PK Solver 2.0 [52].
For the PKs study, twelve male and twelve female healthy Swiss albino mice were randomly selected and placed in 3 groups (n = 4/sex/group). The mice received free access to drinking water and pelleted regular rodent chow (5% fat content, Cat# 7012, Envigo/Teklad, Madison, WI, USA) until the day before experimentation, after which they were fasted for 8 h and allowed only free access to drinking water. Mice were administered PsA formulated in sterile PBS-DMSO (925:75) + 0.2% Tween 80 at a volume not exceeding 100 µL intravenously through recto-orbital injection. Each animal was anaesthetized using Isoflurane (Piramal Critical Care Inc., Bethlehem, PA, USA) for 1–2 min before injection. Disposable sterilized syringes (Becton, Dickinson and Company, Franklin Lakes, NJ, USA) were used for blood collection as well as administration of PsA at a dose of 50 mg/kg and volume, adjusted to the mouse body weight, no greater than 100 µL for animal safety considerations. Blood samples of around 50–70 µL were collected through the tail vein in 600 µL Eppendorf tubes at time points 0.25, 0.75, and 1.5 h for groups 1 and 4, 0.083, 0.5, and 1 h for groups 2 and 5, in addition to 2 and 4 h for groups 3 and 6 following intravenous injection and subjected to immediate centrifugation. From the plasma, 15 µL was transferred into clean 600 µL Eppendorf tubes and immediately subjected to the extraction method listed above and analyzed using HPLC.

SMILES: CC/C=C\[C@H](O)[C@H](O)C1=C(C)C(=O)[C@]2(O1)C(=O)N[C@@](OC)(C(=O)c1ccccc1)[C@@H]2O [PsA, pseurotin A]
- decrease in body weight (Swiss albino mice; 500 mg/kg female dosing group, oral gavage, after 14 days): 45%
- major organ toxicity (liver, lung, heart, brain, kidneys) (Swiss albino mice; 14-day acute toxicity, 10, 250 and 500 mg/kg oral gavage): neither major organ toxicity
- LD50 (Swiss albino mice; Up-and-Down acute toxicity procedure, oral, male and female Swiss albino mice): > 550 mg/kg
- Distant recurrence Backbone, affected mice per group (mCRPC CWR-R1ca-Luc cells; PsA 10 mg/kg daily oral, n = 5): 1/5
- Distant recurrence Brain, affected mice per group (mCRPC CWR-R1ca-Luc cells; PsA 10 mg/kg daily oral, n = 5): 2/5
- Distant recurrence Femur, affected mice per group (mCRPC CWR-R1ca-Luc cells; PsA 10 mg/kg daily oral, n = 5): 1/5
- Distant recurrence Heart, affected mice per group (mCRPC CWR-R1ca-Luc cells; PsA 10 mg/kg daily oral, n = 5): 1/5
- Distant recurrence Kidney, affected mice per group (mCRPC CWR-R1ca-Luc cells; PsA 10 mg/kg daily oral, n = 5): 0/5
- Distant recurrence Liver, affected mice per group (mCRPC CWR-R1ca-Luc cells; PsA 10 mg/kg daily oral, n = 5): 1/5
- Distant recurrence Lung, affected mice per group (mCRPC CWR-R1ca-Luc cells; PsA 10 mg/kg daily oral, n = 5): 1/5
- Distant recurrence Spleen, affected mice per group (mCRPC CWR-R1ca-Luc cells; PsA 10 mg/kg daily oral, n = 5): 1/5
- Locoregional recurrence, affected mice per group (mCRPC CWR-R1ca-Luc cells; PsA 10 mg/kg daily oral, n = 5): one and 1/5
- Distant recurrence Backbone, affected mice per group (mCRPC CWR-R1ca-Luc cells; PsA 20 mg/kg daily oral, n = 7): 0/7
- Distant recurrence Brain, affected mice per group (mCRPC CWR-R1ca-Luc cells; PsA 20 mg/kg daily oral, n = 7): 2/7
- Distant recurrence Femur, affected mice per group (mCRPC CWR-R1ca-Luc cells; PsA 20 mg/kg daily oral, n = 7): 1/7
- Distant recurrence Heart, affected mice per group (mCRPC CWR-R1ca-Luc cells; PsA 20 mg/kg daily oral, n = 7): 0/7
- Distant recurrence Kidney, affected mice per group (mCRPC CWR-R1ca-Luc cells; PsA 20 mg/kg daily oral, n = 7): 0/7
- Distant recurrence Liver, affected mice per group (mCRPC CWR-R1ca-Luc cells; PsA 20 mg/kg daily oral, n = 7): 1/7
- Distant recurrence Lung, affected mice per group (mCRPC CWR-R1ca-Luc cells; PsA 20 mg/kg daily oral, n = 7): 0/7
- Distant recurrence Spleen, affected mice per group (mCRPC CWR-R1ca-Luc cells; PsA 20 mg/kg daily oral, n = 7): 0/7
- Locoregional recurrence, affected mice per group (mCRPC CWR-R1ca-Luc cells; PsA 20 mg/kg daily oral, n = 7): one and 1/7
- plasma detectability over time by HPLC ([1]; IV 50 mg/kg): undetectable by the HPLC method after 2 h
- C0 ([1]; both sexes, Swiss albino, mouse, plasma, IV 50 mg/kg, read-out: initial concentration range): 24600 to 34200 ng/mL
- AUC(0-t) ([1]; both sexes, Swiss albino, mouse, plasma, single IV 50 mg/kg, 8 h fasting, non-compartmental, mean, read-out: AUC0–t): 19100 ng·h/mL
- AUC(0-t) ([1]; both sexes, Swiss albino, mouse, plasma, single IV 50 mg/kg, 8 h fasting, non-compartmental, mean, read-out: AUCt–∞): 20900 ng·h/mL
- C0 ([1]; both sexes, Swiss albino, mouse, plasma, single IV 50 mg/kg, 8 h fasting, non-compartmental, mean, read-out: C0, initial plasma concentration): 37300 ng/mL
- Vd ([1]; both sexes, Swiss albino, mouse, plasma, IV 50 mg/kg, read-out: average volume of distribution (Vd)): 1.83 L/kg
- MRT ([1]; both sexes, Swiss albino, mouse, plasma, single IV 50 mg/kg, 8 h fasting, non-compartmental, mean, read-out: MRT, mean residence time): 44.4 min
- half-life ([1]; both sexes, Swiss albino, mouse, plasma, single IV 50 mg/kg, 8 h fasting, non-compartmental, mean, read-out: T1/2, elimination half-life (converted)): 31.8 min
- Vd ([1]; both sexes, Swiss albino, mouse, plasma, single IV 50 mg/kg, 8 h fasting, non-compartmental, mean, read-out: Vd, volume of distribution): 1.83 L
- AUMC, area under the moment curve ([1]; single IV 50 mg/kg, 8 h fasting, non-compartmental, mean): 15410 ng·h/mL
